Reference: patent US8536187B2 (Gilead Sciences, Inc., priority 2008, dated 2013)

How the values were obtained:
[1] = CC50 assay (CellTiter-Glo) in Huh-7 HCV replicon cells; type: cell-based; conditions: human
Procedure, shortened: (§1)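 Huh-7 cells carrying HCV replicon (6000/well) incubated with serially diluted compound, 0.5% DMSO final, 3 days at 37° C, 5% CO2. EC50 from luciferase luminescence after 30 min lysis/substrate at room temperature; CC50 from CellTiter-Glo luminescence after 10 min at room temperature.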

[2] = system: HCV replicon in human hepatoma Huh-7 cell line; assay: Anti-HCV replicon assay, EC50 (luciferase luminescence); type: cell-based; conditions: Hepatitis C virus, Huh-7, 72 h
Procedure, shortened: as §1

Row | SMILES | CC50 at 3 days ([1]; Table 2, 3 days incubation) [nM] | EC50 [2] [nM] | CC50 at 3 days ([1]; Table 1, 3 days incubation) [nM]
1 | COc1ccc(-c2ccc3nc(NC(C)c4ccc(-n5cncn5)cc4)nc(NC4(C(F)(F)F)CC4)c3n2)cc1S(C)(=O)=O (stereo not drawn) [Example 97, N^2-(1-(4-(1H-1,2,4-triazol-1-yl)phenyl)ethyl)-6-(4-methoxy-3-(methylsulfonyl)phenyl)-N^4-(1-(trifluoromethyl)cyclopropyl)pyrido[3,2-d] pyrimidine-2,4-diamine] | > 10000 | < 100 | –
2 | NS(=O)(=O)c1cc(CNc2nc(NCC(F)(F)F)c3nc(-c4ccc(F)cc4)ccc3n2)ccc1F [Example 7, 2-Fluoro-5-{[6-(4-fluoro-phenyl)-4-(2,2,2-trifluoro-ethylamino)-pyrido[3,2-d]pyrimidin-2-ylamino]-methyl}-benzenesulfonamide] | – | < 100 | 10000 to 25000
3 | Cc1cc(CNc2nc(NC3(C(F)(F)F)CC3)c3nc(-c4ccc(F)cc4)ccc3n2)cc(S(N)(=O)=O)c1 [Example 82, 3-((6-(4-fluorophenyl)-4-(1-(trifluoromethyl)cyclopropyl-amino)pyrido[3,2-d]pyrimidin-2-ylamino)methyl)-5-methylbenzenesulfonamide] | > 10000 | < 100 | –
4 | CS(=O)(=O)c1cccc(-c2ccc3nc(NCc4ccc(-n5cncn5)cc4)nc(OC4CCC4)c3n2)c1 [Example 202, N-(4-(1H-1,2,4-triazol-1-yl)benzyl)-4-cyclobutoxy-6-(3-(methylsulfonyl)phenyl)pyrido [3,2-d]pyrimidin-2-amine] | > 10000 | < 100 | –
5 | C[C@@H](Nc1nc(NC2(C(F)(F)F)CCC2)c2nc(-c3ccc(F)cc3)ccc2n1)c1ccc(S(N)(=O)=O)cc1 [Example 72, (R)-4-(1-(6-(4-fluorophenyl)-4-(1-(trifluoromethyl)cyclo-butylamino)pyrido[3,2-d]pyrimidin-2-ylamino)ethyl) benzenesulfonamide] | > 10000 | 250 to 2000 | –
6 | C[C@@H](Nc1nc(OC2CCC2)c2nc(-c3ccc(OC4CC4)nc3)ccc2n1)c1ccc(S(N)(=O)=O)cc1 [Example 252, 4-((R)-1-(4-cyclobutoxy-6-(6-cyclopropoxypyridin-3-yl)pyrido[3,2-d]pyrimidin-2-ylamino)ethyl)benzene-sulfonamide] | 1000 to 10000 | < 100 | –
7 | COc1ccc(-c2ccc3nc(NCCS(N)(=O)=O)nc(NC4(C(F)(F)F)CC4)c3n2)cc1S(C)(=O)=O [Example 93, 2-(6-(4-methoxy-3-(methylsulfonyl)phenyl)-4-(1-(trifluoromethyl)cyclopropyl-amino)pyrido[3,2-d]pyrimidin-2-ylamino)ethanesulfonamide] | 1000 to 10000 | < 100 | –
8 | CC(Cn1cncn1)Nc1nc(NC2(C(F)(F)F)CC2)c2nc(-c3ccc(NC4CC4)nc3)ccc2n1 (stereo not drawn) [Example 114, N^2-(1-(1H-1,2,4-triazol-1-yl)propan-2-yl)-6-(6-(cyclopropylamino)pyridin-3-yl)-N^4-(1-(trifluoromethyl)cyclopropyl)pyrido[3,2-d] pyrimidine-2,4-diamine] | > 10000 | < 100 | –
9 | C[C@@H](Nc1nc(NC2(C(F)(F)F)CC2)c2nc(-c3ccc(N)nc3)ccc2n1)c1ccc(-n2cncn2)cc1 [Example 84, N^2-((R)-1-(4-(1H-1,2,4-triazol-1-yl)phenyl)ethyl)-6-(6-aminopyridin-3-yl)-N^4-(1-(trifluoromethyl)cyclopropyl) pyrido[3,2-d]pyrimidine-2,4-diamine] | 1000 to 10000 | < 100 | –
10 | NS(=O)(=O)c1cc(Cl)cc(CNc2nc(NC3(C(F)(F)F)CC3)c3nc(C#CC4CC4)ccc3n2)c1 [Example 91, 3-chloro-5-((6-(2-cyclopropylethynyl)-4-(1-(trifluoromethyl)cyclopropyl-amino)pyrido[3,2-d]pyrimidin-2-ylamino)methyl)benzene-sulfonamide] | > 10000 | < 100 | –
11 | CC[C@@H](Nc1nc(NCC(F)(F)F)c2nc(-c3ccc(F)cc3)ccc2n1)c1ccc(S(N)(=O)=O)cc1 [Example 12, (R)-4-{1-[6-(4-Fluoro-phenyl)-4-(2,2,2-trifluoro-ethylamino)-pyrido[3,2-d]pyrimidin-2-ylamino]-propyl}-benzenesulfonamide] | – | 250 to 2000 | 10000 to 25000
12 | NS(=O)(=O)c1ccc(CNc2nc(NC3(C(F)(F)F)CC3)c3nc(-c4ccc(OC(F)F)cc4)ccc3n2)cc1 [Example 61, 4-((6-(4-(difluoromethoxy)phenyl)-4-(1-(trifluoromethyl)cyclopropylamino)pyrido[3,2-d]pyrimidin-2-ylamino)methyl) benzenesulfonamide] | 1000 to 10000 | < 100 | –
13 | Cc1nc(C)n(-c2ccc(CNc3nc(OC4(C)CC4)c4nc(-c5cccc(S(C)(=O)=O)c5)ccc4n3)cc2)n1 [Example 203, N-(4-(3,5-dimethyl-1H-1,2,4-triazol-1-yl)benzyl)-4-(1-methylcyclopropoxy)-6-(3-(methylsulfonyl)phenyl)pyrido [3,2-d]pyrimidin-2-amine] | > 10000 | < 100 | –
14 | CS(=O)(=O)c1cccc(-c2ccc3nc(NCc4ccc(-n5cncn5)cc4)nc(OC4CC4)c3n2)c1 [Example 188, N-(4-(1H-1,2,4-triazol-1-yl)benzyl)-4-cyclopropoxy-6-(3-(methylsulfonyl)phenyl) pyrido[3,2-d]pyrimidin-2-amine] | > 10000 | < 100 | –
15 | NS(=O)(=O)c1ccc(CNc2nc(NC3(C(F)(F)F)CC3)c3nc(-c4ccc(F)nc4)ccc3n2)cc1 [Example 96, 4-((6-(6-fluoropyridin-3-yl)-4-(1-(trifluoromethyl)cyclopropyl-amino)pyrido[3,2-d]pyrimidin-2-ylamino)methyl)benzene-sulfonamide] | 1000 to 10000 | < 100 | –
16 | NS(=O)(=O)c1cc(Cl)cc(CNc2nc(NC3(C(F)(F)F)CC3)c3nc(-c4ccc(F)nc4)ccc3n2)c1 [Example 90, 3-chloro-5-((6-(6-fluoropyridin-3-yl)-4-(1-(trifluoromethyl)cyclopropyl-amino)pyrido[3,2-d]pyrimidin-2-ylamino)methyl)benzene-sulfonamide] | > 10000 | < 100 | –
17 | Nc1ccc(-c2ccc3nc(NCc4ccc(-n5cncn5)cc4)nc(NC4(C(F)(F)F)CC4)c3n2)cn1 [Example 112, N^2-(4-(1H-1,2,4-triazol-1-yl)benzyl)-6-(6-aminopyridin-3-yl)-N^4-(1-(trifluoromethyl)cyclopropyl)pyrido[3,2-d] pyrimidine-2,4-diamine] | 1000 to 10000 | < 100 | –
18 | CS(=O)(=O)c1cccc(-c2ccc3nc(NCc4ccc(S(N)(=O)=O)cc4)nc(OC4CC4)c3n2)c1 [Example 22, 4-{[4-Cyclopropoxy-6-(3-methanesulfonyl-phenyl)-pyrido[3,2-d]pyrimidin-2-ylamino]-methyl}-benzenesulfonamide] | – | < 100 | > 25000
19 | Fc1ccc(-c2ccc3nc(NCc4cccc(-n5cccn5)c4)nc(NCC(F)(F)F)c3n2)cc1 [Example 2, 6-(4-Fluoro-phenyl)-N2-(3-pyrazol-1-yl-benzyl)-N4-(2,2,2-trifluoro-ethyl)-pyrido[3,2-d]pyrimidine-2,4-diamine] | – | < 100 | > 25000
20 | C[C@@H](Nc1nc(NC2(C(F)(F)F)CCCCC2)c2nc(-c3ccc(F)cc3)ccc2n1)c1ccc(S(N)(=O)=O)cc1 [Example 67, (R)-4-(1-(6-(4-fluorophenyl)-4-(1-(trifluoromethyl)cyclohexylamino)pyrido[3,2-d]pyrimidin-2-ylamino)ethyl)benzenesulfonamide] | > 10000 | 250 to 2000 | –
21 | COc1ccc(-c2ccc3nc(NCc4ccc(S(N)(=O)=O)cc4)nc(NC4(C#N)CC4)c3n2)cn1 [Example 132, 4-((4-(1-cyanocyclopropylamino)-6-(6-methoxypyridin-3-yl)pyrido[3,2-d]pyrimidin-2-ylamino)methyl)benzene-sulfonamide] | > 10000 | < 100 | –
22 | CS(=O)(=O)Nc1cncc(CNc2nc(NC3(C(F)(F)F)CC3)c3nc(-c4ccc(F)cc4)ccc3n2)c1 [Example 134, N-(5-((6-(4-fluorophenyl)-4-(1-(trifluoromethyl)cyclopropyl-amino)pyrido[3,2-d]pyrimidin-2-ylamino)methyl)pyridin-3-yl)methanesulfonamide] | > 10000 | 250 to 2000 | –
23 | NS(=O)(=O)c1cc(CNc2nc(NC3(C(F)(F)F)CC3)c3nc(-c4ccc(F)cc4)ccc3n2)ccc1F [Example 25, 2-fluoro-5-{[6-(4-fluorophenyl)-4-(1-trifluoromethyl-cyclopropylamino)-pyrido[3,2-d]pyrimidin-2-ylamino]-methyl}-benzenesulfonamide] | > 10000 | < 100 | –
24 | CCOc1ccc(-c2ccc3nc(NCc4cccc(S(C)(=O)=O)c4)nc(NCC(F)(F)F)c3n2)cn1 [Example 230, N^2-(3-(methylsulfonyl)benzyl)-6-(6-ethoxypyridin-3-yl)-N^4-(2,2,2-trifluoroethyl)pyrido [3,2-d]pyrimidine-2,4-diamine] | > 10000 | < 100 | –
25 | CCOc1ccc(-c2ccc3nc(NCc4ccc(-n5cncn5)cc4)nc(OC4(C)CC4)c3n2)cc1S(N)(=O)=O [Example 263, 5-(2-(4-(1H-1,2,4-triazol-1-yl)benzylamino)-4-(1-methylcyclopropoxy)pyrido [3,2-d)pyrimidin-6-yl)-2-ethoxybenzenesulfonamide] | 1000 to 10000 | < 100 | –
26 | C#Cc1ccc2nc(N[C@H](C)c3ccc(S(N)(=O)=O)cc3)nc(OC3CC3)c2n1 [Example 294, (R)-4-(1-(4-cyclopropoxy-6-ethynylpyrido[3,2-d]pyrimidin-2-ylamino)ethyl)benzene-sulfonamide] | 1000 to 10000 | < 100 | –
27 | C[C@@H](Nc1nc(NCC(F)(F)F)c2nc(C#CC(C)(C)C)ccc2n1)c1ccc(S(N)(=O)=O)cc1 [Example 285, (R)-4-(1-(6-(3,3-dimethylbut-1-ynyl)-4-(2,2,2-trifluoroethyl-amino)pyrido[3,2-d]pyrimidin-2-ylamino)ethyl)benzene-sulfonamide] | > 10000 | 250 to 2000 | –
